Experimental data as given in US6420435B1, “Method for treating gastrointestinal disorders” (priority 1999, dated 2002).

How the values were obtained:
[1] = system: participants suffering from mild/moderate heartburn to severe heartburn/GERD; assay: Preliminary double-blind placebo study in 13 participants; format: in vivo, human; settings: 1 capsule with 1 gram of 98% d-limonene, every day/every other day regimens
Description: A preliminary double-blind placebo study was conducted on 13 participants suffering from mild/moderate heartburn to severe heartburn/GERD. Seven participants were administered the product and six were administered a placebo. In the “limonene” group (i.e. 1 capsule containing 1 gram of 98% d-limonene), two participants were administered 1 capsule every day for five days followed by 1 capsule every other day for five days. The remaining “limonene” group participants were administered 1 capsule every other day for 20 days. In the “placebo” group, three participants were administered 1 placebo capsule (i.e. gelatin capsule containing soybean oil) daily for five days, followed by 1 capsule every other day for 5 days. Two participants were administered 1 placebo capsule every other day for 20 days while one participant having severe heartburn was administered 1 placebo capsule twice a day for 5 days, followed by 1 capsule every day for 5 days, followed by 1 capsule as needed. As shown in Table 4 (and FIG. 4), a significant difference in results was obtained between the two groups ([…]).

[2] = system: adults suffering from chronic heartburn or gastroesophagael reflux disorder (GERD); assay: Initial studies of d-limonene treatment regimen in 19 adults with chronic heartburn or GERD, symptom ratings on a scale of 1-10; format: in vivo, human; settings: for % of participants (every day regimen) with symptom rating = 1-2: 1 capsule 1000 mg every day; for % of participants (every other day regimen) with symptom rating = 1-2: 1 capsule 1000 mg every other day; for % of all participants with symptom rating = 1-2: 1000 mg d-limonene capsule every day or every other day; for % of all participants with symptom rating = 1-2 / percentage of participants achieving complete relief of symptoms (rating of 1): all participants
Description: Initial studies of the inventive treatment regimen were conducted at different times on 19 adults suffering from chronic heartburn or gastroesophagael reflux disorder (GERD). […] Thirty-seven (37%) of the total participants in these initial studies were male ranging in age from 42 to 73 years (average age=50 years), while sixty-three (63%) of the participants were female ranging in age from 34 to 70 years (average age=43). All of the participants discontinued using their respective treatments of choice (i.e. over-the-counter (OTC) and/or prescription medications) at least one day prior to beginning the inventive treatment regimen. Prior to beginning the treatment regimen, each participant was asked to rate the frequency and severity of his/her gastrointestinal disorder symptoms on a scale of 1-10. For “severity of symptoms,” 1 corresponded to complete relief of symptoms while 10 corresponded to severe, painful symptoms. A rating of 2 would correspond to mild symptoms. For “frequency of symptoms,” 1 corresponded to complete relief of symptoms while 10 corresponded to daily symptoms.
Eleven of the participants were administered 1 capsule of d-limonene every other day for 20 days. Five of the participants were administered 1 capsule of d-limonene every day for 16 to 20 days. Each capsule contained 1000 mg of d-limonene having a purity of from 98.5% to 99.3%.
FIG. 3 is a graph illustrating the percentage of all the participants (i.e. those undergoing the every other day regimen and every day regimen) having a severity rating of 1.

[3] = system: persons suffering from diagnosed peptic ulcers; assay: Treatment regimen in persons with diagnosed peptic ulcers; format: in vivo, human; settings: 1,000 mg dose regimen, had to discontinue
Excerpt: The present invention is particularly useful in alleviating the severity and frequency of gastrointestinal disorders. […] As used herein, “gastrointestinal disorder” shall mean mild/moderate heartburn, stomach acid indigestion, and severe heartburn/GERD.

[4] = system: inventor with long history of severe heartburn; assay: Inventor's own use of limonene for severe heartburn; format: in vivo, human; settings: 500 mg to 1000 mg every other day for 8-20 days
Description: Similar results were obtained on another adult taking 1000 mg every other day as well as on participants of studies discussed in more detail in Examples 1-2.

[5] = system: individuals taking limonene; assay: Side effects of limonene having at least 98% purity; format: in vivo, human; settings: limonene having at least a 98% purity
Excerpt: Any conventional distillation method known by those of ordinary skill in the art for obtaining a highly purified form of d-limonene (about 98% pure) may be employed. Example 3 illustrates one preferred distillation method for removing the majority of contaminants.

[6] = In vitro studies on mechanism of action; settings: suggested mechanism, coating the stomach wall
Excerpt: The present invention is directed to a method for treating gastrointestinal disorders and comprises the oral administration of a therapeutically effective amount of limonene, preferably a purified form of d-limonene (i.e. at least 98%), to a person in need of such treatment. “Limonene” as used herein shall include both d-limonene and 1-limonene. […] The inventor has discovered that oral administration of a therapeutically effective amount of purified, food grade limonene (preferably at least 98% pure d-limonene), taken once daily or once every other day for 2 to 20 days, will alleviate or eliminate entirely the symptoms, both in terms of frequency and severity, of gastrointestinal disorders, such disorders ranging from mild/moderate heartburn and gastric indigestion to severe heartburn or gastro esophageal reflux disorder (GERD).

In the case of `C=C(C)[C@H]1CC=C(C)CC1` [d-limonene], the “Product vs. Placebo result (percentage of participants, rating criterion not given)” value ([1]; Day 4) is reported as 29%, the “Product vs. Placebo result (percentage of participants, rating criterion not given)” value ([1]; Day 7) is reported as 29% and the “Product vs. Placebo result (percentage of participants, rating criterion not given)” value ([1]; Day 9) is reported as 71%. For the same compound, the “Product vs. Placebo result (percentage of participants, rating criterion not given)” value ([1]; Day 14) was 86%, the “% of participants (every day regimen) with symptom rating = 1-2” value (shortened to “% of participants (every day regimen)”) ([2]; Day 2) was 14% and the “% of participants (every other day regimen) with symptom rating = 1-2” value ([2]; Day 2) was 42%. For the same compound, the “% of participants (every day regimen)” value ([2]; Day 4) was 29%, the “% of participants (every other day regimen) with symptom rating = 1-2” value ([2]; Day 4) was 42% and the “% of all participants with symptom rating = 1-2” value (“% of all participants” for short) ([2]; Day 4) was 32%. The “percentage of participants with severity and frequency symptom ratings of 1-2” value (shortened to “percentage of participants … of 1-2”) ([2]; Day 4, mild/moderate heartburn group) was 55%, the “percentage of participants … of 1-2” value ([2]; Day 4, severe heartburn/GERD group) was 0% and the “% of participants (every day regimen)” value ([2]; Day 7) was 57%. For the same compound, the “% of participants (every other day regimen) with symptom rating = 1-2” value ([2]; Day 7) was 67%, the “% of all participants” value ([2]; Day 7) was 63% and the “percentage of participants … of 1-2” value ([2]; Day 7, mild/moderate heartburn group) was 82%. The “percentage of participants … of 1-2” value ([2]; Day 7, severe heartburn/GERD group) was 38%, the “% of participants (every day regimen)” value ([2]; Day 9) was 71% and the “% of participants (every other day regimen) with symptom rating = 1-2” value ([2]; Day 9) was 75%. The “% of all participants” value ([2]; Day 9) was 74%, the “percentage of participants … of 1-2” value ([2]; Day 9, mild/moderate heartburn group) was 82% and the “percentage of participants … of 1-2” value ([2]; Day 9, severe heartburn/GERD group) was 38%. The “percentage of participants … of 1-2” value ([2]; Day 11, mild/moderate heartburn group) was 91%, the “percentage of participants … of 1-2” value ([2]; Day 11, severe heartburn/GERD group) was 72% and the “% of participants (every day regimen)” value ([2]; Day 14) was 86%. For the same compound, the “% of all participants” value ([2]; Day 14) was 89%, the “percentage of participants … of 1-2” value ([2]; Day 15, mild/moderate heartburn group) was 91% and the “percentage of participants … of 1-2” value ([2]; Day 15, severe heartburn/GERD group) was 88%. The “percentage of participants achieving complete relief of symptoms (rating of 1)” value ([2]; day 2) was “about 20%”, the “percentage of participants achieving complete relief of symptoms (rating of 1)” value ([2]; day 14) was 79% and the “effect on severity of gastrointestinal symptoms in ulcer sufferers” value [3] was “increase in the severity of gastrointestinal symptoms”.
For `C=C(C)[C@H]1CC=C(C)CC1` [limonene], the “severity and frequency of heartburn symptoms” value [4] was “alleviated permanently”, the “side effects such as diarrhea and headache” value [5] was “significantly reduced certain side effects” and the “effect on gastric acid” value [6] was “neutralizing effect on gastric acid”.
